Laboratory results taken from patent US20090068290A1, “BIFEPRUNOX DOSES FOR TREATING SCHIZOPHRENIA” (priority 2006, published 2009).

Experiments:
Assay type in all cases: in vivo, human
[1] = system: adult subjects with schizophrenia; test: Adverse events (TEAE, SAE, discontinuation, EPS-related TEAE, anticholinergic use), Clinical Study One
Procedure: METHODOLOGY: This was a randomized, double-blind, fixed-dose, placebo-controlled, risperidone-referenced, parallel group, multi-center study in adult subjects with schizophrenia. There were five treatment groups in this study. […] Study medication was administered once daily. After Baseline measurements were performed, the titration phase was begun. Bifeprunox treated subjects were titrated up to 5 mg, 10 mg or 20 mg according to a standardized titration schedule (Day 1: 0.125 mg, Day 2: 0.25 mg, Day 3: 0.5 mg, Day 4: 1.0 mg, Day 5: 2.0 mg, Day 6: 5.0 mg, Day 7: 10.0 mg, Day 8: 20 mg).

[2] = system: adult subjects with schizophrenia; test: BPRS total score, Clinical Study Two; details: LOCF; for Change from Baseline in BPRS Total Score, Mean (SD) / Change from Baseline in BPRS Total Score, Median: Risperidone 6 mg, ITT population
Procedure: Rating scale assessments were performed weekly, except for week 5, to measure the change from baseline to endpoint of the PANSS total score. Other assessments included: PANSS positive symptom subscale score, PANSS negative symptom subscale score, PANSS general pschopathology subscale score, BPRS total score, BPRS psychosis score, the CGI-S score, the CGI-I score, responder rates based on the PANSS total score, and the Calgary Depression Scale for Schizophrenia (CDSS). […]
Subjects who completed this study had the option to continue in the long-term. […] Blood samples were also obtained at Screening/Baseline, Week 3, and Week 6 for clinical laboratory assessments.

[3] = system: adult subjects with schizophrenia; test: Calgary Depression Scale for Schizophrenia (CDSS), Clinical Study Three; details: LOCF; for Change from Baseline in CDSS Total Score, Median / Change from Baseline in CDSS Total Score, Mean (SD): 15 mg
Excerpt: (§1) SECONDARY OBJECTIVES To assess the efficacy of bifeprunox in treating schizophrenia using the Positive Symptom sub-scale score of the PANSS, the Negative Symptom sub-scale score of the PANSS, the General Psychopathology sub-scale of the PANSS, Brief Psychiatric Rating Scale (BPRS) total score derived from the PANSS, BPRS psychosis score derived from the PANSS, the Clinical Global Impression Severity of Illness score (CGI-S), the Clinical Global Impression Improvement score (CGI-I), CGI-I responder rate, PANSS responder rate based on the PANSS total score, Calgary Depression Scale for Schizophrenia (CDSS), and Subject Satisfaction rating.
(§2) There were four treatment arms in this study, approximately 144 subjects per arm. […] After completing the Single-Blind Placebo Lead-in Period of at least three days, bifeprunox-treated subjects were titrated from 0.25 mg up to 20 mg/day or 30 mg/day according to a standardized titration scheme over a seven- or eight-day period, respectively. When the assigned dose was reached, subjects were maintained at that dose for the remainder of the six week treatment period. […] Subjects were hospitalized (if not already inpatients) after eligibility for study entry was verified, starting from the Screening Visit until at least 10 days after Baseline. Subjects could be hospitalized longer than 10 days if considered medically necessary by the Investigator. Rating scale assessments for efficacy and abnormal movement disorders were done weekly except for Week 5. […] Subject satisfaction with study medication was assessed at Week 6.

[4] = system: adult subjects with schizophrenia; test: CGI Severity of Illness score, Clinical Study Three; details: LOCF; for Change from Baseline in CGI Severity of Illness Score, Mean (SD) / Change from Baseline in CGI Severity of Illness Score, Median: 15 mg
Excerpt: as §1, §2

Cc1nc2n(c(=O)c1CCN1CCC(c3noc4cc(F)ccc34)CC1)CCCC2 [Risperidone, risperidone, reference compound]
TEAE Akathisia, % ([1]; 6 mg, Safety Population): (5%)
TEAE Muscle Spasms, % ([1]; 6 mg, Safety Population): (2%)
TEAE Musculoskeletal Stiffness, % ([1]; 6 mg, Safety Population): (<1%)
TEAE Myalgia, % ([1]; 6 mg, Safety Population): (2%)
TEAE NERVOUS SYSTEM DISORDERS, % ([1]; 6 mg, Safety Population): (49%)
TEAE Neck Pain, % ([1]; 6 mg, Safety Population): (2%)
TEAE Neck Stiffness, % ([1]; 6 mg, Safety Population): (<1%)
TEAE Pain in Jaw, % ([1]; 6 mg, Safety Population): (<1%)
TEAE Pain in Limb, % ([1]; 6 mg, Safety Population): (2%)
Affect Lability, % ([1]; Risperidone 6 mg): (<1%)
Agitation, % ([1]; Risperidone 6 mg): (8%)
Alcoholic Hangover, % ([1]; Risperidone 6 mg): (<1%)
Anxiety Aggravated, % ([1]; Risperidone 6 mg): (3%)
Anxiety, % ([1]; Risperidone 6 mg): (6%)
DIZZINESS, % ([1]; Risperidone 6 mg): (5%)
DYSARTHRIA, % ([1]; Risperidone 6 mg): (2%)
Disturbance in Attention, % ([1]; Risperidone 6 mg): (<1%)
Drooling, % ([1]; Risperidone 6 mg): (2%)
Dystonia, % ([1]; Risperidone 6 mg): (4%)
EXTRAPYRAMIDAL DISORDER, % ([1]; Risperidone 6 mg): (3%)
Gait Feastinating, % ([1]; Risperidone 6 mg): (<1%)
Headache Nos, % ([1]; Risperidone 6 mg): (28%)
Hypoaesthesia, % ([1]; Risperidone 6 mg): (<1%)
Migraine Aggravated, % ([1]; Risperidone 6 mg): (<1%)
Oculogyric Crisis, % ([1]; Risperidone 6 mg): (<1%)
PARAESTHESIA, % ([1]; Risperidone 6 mg): (<1%)
PSYCHIATRIC DISORDERS, % ([1]; Risperidone 6 mg): (39%)
SEDATION, % ([1]; Risperidone 6 mg): (13%)
SOMNOLENCE, % ([1]; Risperidone 6 mg): (22%)
TREMOR, % ([1]; Risperidone 6 mg): (<1%)
incidence of aggravated schizophrenia NOS (SAE) ([1]; Risperidone 6 mg): 4%
subjects with at least one AE that led to discontinuation ([1]; Risperidone 6 mg): 14%
subjects with at least one SAE ([1]; Risperidone 6 mg): 16%
subjects with at least one TEAE ([1]; Risperidone 6 mg): 89%
suicide attempt ([1]; Risperidone 6 mg): no subjects
Change from Baseline in BPRS Total Score, Mean (SD) ([2]; Week 1): −5.5 (6.3)
Change from Baseline in BPRS Total Score, Median ([2]; Week 1): −5
Change from Baseline in BPRS Total Score, Mean (SD) ([2]; Week 2): −9.1 (8.5)
Change from Baseline in BPRS Total Score, Median ([2]; Week 2): −9
Change from Baseline in BPRS Total Score, Mean (SD) ([2]; Week 3): −10.7 (9.4)
Change from Baseline in BPRS Total Score, Median ([2]; Week 3): −11
Change from Baseline in BPRS Total Score, Median ([2]; Week 4): −13
Change from Baseline in BPRS Total Score, Mean (SD) ([2]; Week 6/Endpoint): −12.2 (11.7)
Change from Baseline in BPRS Total Score, Median ([2]; Week 6/Endpoint): −13
mean change (SD) from Baseline to Endpoint in BPRS total score ([2]; risperidone 6 mg, ITT): −12.2 (11.7)

Cc1cc2c(s1)Nc1ccccc1N=C2N1CCN(C)CC1 [Olanzapine, olanzapine, reference compound]
Change from Baseline in CDSS Total Score, Median ([3]; Week 1): −1.0
Change from Baseline in CDSS Total Score, Mean (SD) ([3]; Week 2): −1.33 (3.33)
Change from Baseline in CDSS Total Score, Median ([3]; Week 2): −1.0
Change from Baseline in CDSS Total Score, Mean (SD) ([3]; Week 3): −1.59 (3.43)
Change from Baseline in CDSS Total Score, Median ([3]; Week 3): −1.0
Change from Baseline in CDSS Total Score, Mean (SD) ([3]; Week 4): −1.49 (3.89)
Change from Baseline in CDSS Total Score, Median ([3]; Week 4): −1.0
Change from Baseline in CDSS Total Score, Mean (SD) ([3]; Week 6, Endpoint): −1.47 (3.95)
Change from Baseline in CDSS Total Score, Median ([3]; Week 6, Endpoint): −1.0
mean change (SD) from Baseline to Endpoint in CDSS score ([3]; olanzapine 15 mg, ITT): −1.47 (3.95)
Change from Baseline in CGI Severity of Illness Score, Mean (SD) ([4]; Week 1): −0.40 (0.65)
Change from Baseline in CGI Severity of Illness Score, Median ([4]; Week 1): 0.0
Change from Baseline in CGI Severity of Illness Score, Mean (SD) ([4]; Week 2): −0.71 (0.76)
Change from Baseline in CGI Severity of Illness Score, Median ([4]; Week 2): −1.0
Change from Baseline in CGI Severity of Illness Score, Mean (SD) ([4]; Week 3): −0.85 (0.87)
Change from Baseline in CGI Severity of Illness Score, Median ([4]; Week 3): −1.0
Change from Baseline in CGI Severity of Illness Score, Mean (SD) ([4]; Week 4): −0.92 (0.90)
Change from Baseline in CGI Severity of Illness Score, Median ([4]; Week 4): −1.0
Change from Baseline in CGI Severity of Illness Score, Mean (SD) ([4]; Week 6/Endpoint): −1.03 (1.00)
Change from Baseline in CGI Severity of Illness Score, Median ([4]; Week 6/Endpoint): −1.0
mean change (SD) from Baseline to Endpoint in CGI severity of illness score ([4]; olanzapine 15 mg, ITT): −1.03 (1.00)
